Reference: US12612409B2, “Pyrrolopyrimidines as CFTR potentiators” (Cystic Fibrosis Foundation, priority 2016, dated 2026)

Legend:
[1] = target: T1, recombinant F508del V470 CFTR in Fischer rat thyroid (FRT) cells (Homo sapiens, UniProt P13569, DEL508-508); assay: FRT ion flux assay of F508del CFTR potentiation; assay type: cell-based; conditions: FRT cells expressing F508del V470 CFTR, forskolin 20 uM, 27° C. pre-incubation
T1 construct: expressed in transfected cells
In short: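 FRT cells co-expressing F508del V470 CFTR and halide-sensitive YFP, temperature-corrected at 27° C for 16-24 h, then treated 30 min with compound plus 20 uM forskolin. Iodide addition quenches YFP, read after ~21 s; ratio scaled to DMSO (0%) and positive control potentiator (100%).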

[2] = target: T2, CFTR in F508del/F508del primary CF hBE cells (Homo sapiens, UniProt P13569, DEL508-508); assay: Ussing chamber electrophysiology assay of CFTR potentiation in F508del/F508del CF bronchial epithelial cells (27° C.); assay type: cell-based
T2 construct: Primary cystic fibrosis human bronchial epithelial (CF hBE) cells were expanded and cultured; endogenous in cells; host or cells: primary CF human bronchial epithelial cells, genotype F508del/F508del
In short: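 Well-differentiated primary CF hBE cells (>30 days air/liquid interface) in Ussing chambers, HEPES saline both sides, voltage clamped to zero. Amiloride 30 uM, forskolin 10 uM, four rising compound concentrations, then CFTRinh-172 20 uM added at 20-25 min intervals. Short-circuit current scaled to DMSO (0%) and a positive control potentiator maximum (100%).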

T2 sequence (P13569 with tags, fused parts or gaps DEL508-508): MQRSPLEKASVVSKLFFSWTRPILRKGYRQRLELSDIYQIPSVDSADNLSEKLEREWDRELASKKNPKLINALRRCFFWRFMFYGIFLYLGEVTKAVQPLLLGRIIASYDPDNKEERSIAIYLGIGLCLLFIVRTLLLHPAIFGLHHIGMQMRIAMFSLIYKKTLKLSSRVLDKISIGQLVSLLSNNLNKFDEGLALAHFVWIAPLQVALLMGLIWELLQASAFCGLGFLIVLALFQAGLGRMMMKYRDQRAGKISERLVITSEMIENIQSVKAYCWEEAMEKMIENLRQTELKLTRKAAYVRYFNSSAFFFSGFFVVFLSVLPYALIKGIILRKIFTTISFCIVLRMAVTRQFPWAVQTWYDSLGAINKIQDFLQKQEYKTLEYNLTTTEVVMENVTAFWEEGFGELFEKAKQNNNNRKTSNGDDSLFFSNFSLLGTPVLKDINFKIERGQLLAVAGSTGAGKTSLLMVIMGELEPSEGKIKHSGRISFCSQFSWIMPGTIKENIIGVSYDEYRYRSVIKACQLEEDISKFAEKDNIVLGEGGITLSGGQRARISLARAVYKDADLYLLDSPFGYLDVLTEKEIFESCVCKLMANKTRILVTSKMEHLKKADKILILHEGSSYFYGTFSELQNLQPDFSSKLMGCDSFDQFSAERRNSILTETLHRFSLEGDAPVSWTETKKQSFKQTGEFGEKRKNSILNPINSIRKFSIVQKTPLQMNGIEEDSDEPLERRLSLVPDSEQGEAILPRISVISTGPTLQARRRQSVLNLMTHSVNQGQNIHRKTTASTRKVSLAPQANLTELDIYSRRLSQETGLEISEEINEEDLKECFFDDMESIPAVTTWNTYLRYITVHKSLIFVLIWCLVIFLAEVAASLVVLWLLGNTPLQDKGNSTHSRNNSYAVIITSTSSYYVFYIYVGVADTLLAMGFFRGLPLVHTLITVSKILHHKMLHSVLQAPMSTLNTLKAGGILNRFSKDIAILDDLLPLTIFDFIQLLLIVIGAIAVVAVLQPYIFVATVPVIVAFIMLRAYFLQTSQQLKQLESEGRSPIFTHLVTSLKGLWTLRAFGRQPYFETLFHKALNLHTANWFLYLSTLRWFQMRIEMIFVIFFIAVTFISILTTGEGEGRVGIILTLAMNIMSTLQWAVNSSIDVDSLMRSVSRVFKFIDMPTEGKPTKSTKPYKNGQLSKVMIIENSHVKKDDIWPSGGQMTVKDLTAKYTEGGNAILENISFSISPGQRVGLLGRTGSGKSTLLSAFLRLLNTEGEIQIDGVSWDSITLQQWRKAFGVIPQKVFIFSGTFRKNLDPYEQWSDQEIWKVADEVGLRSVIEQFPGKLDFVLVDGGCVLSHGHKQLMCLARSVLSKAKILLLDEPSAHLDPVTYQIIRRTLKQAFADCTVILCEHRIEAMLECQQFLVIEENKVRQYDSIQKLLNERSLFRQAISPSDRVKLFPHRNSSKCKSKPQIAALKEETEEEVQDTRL
T1 sequence (P13569 with tags, fused parts or gaps DEL508-508): as above

Compound	EC50 [1]	EC50 [2]
CCC(c1cn(-c2ccccc2F)nn1)n1cc(-c2cncnc2OC)c2c(N)nc(C)nc21 (single isomer, unassigned; enantiomer 2) [Example 304, (−) 7-{1-[1-(2-fluorophenyl)-1H-1,2,3-triazol-4-yl]propyl}-5-(4-methoxypyrimidin-5-yl)-2-methyl-7H-pyrrolo[2,3-d]pyrimidin-4-amine, enantiomer 2]	190 nM	135 nM
CCC(c1cn(-c2cccc(F)c2F)nn1)n1cc(-c2cncnc2OC)c2c(N)ncnc21 (single isomer, unassigned; enantiomer 2) [Example 306, (+) 7-{1-[1-(2,3-Difluorophenyl)-1H-1,2,3-triazol-4-yl]propyl}-5-(4-methoxypyrimidin-5-yl)-7H-pyrrolo[2,3-d]pyrimidin-4-amine, enantiomer 2]	22.2 nM	26.1 nM
CCC(c1cn(-c2cc(F)ccc2F)nn1)n1cc(-c2cncnc2OC)c2c(N)ncnc21 (single isomer, unassigned; enantiomer 2) [Example 308, (−) 7-{1-[1-(2,5-Difluorophenyl)-1H-1,2,3-triazol-4-yl]propyl}-5-(4-methoxypyrimidin-5-yl)-7H-pyrrolo[2,3-d]pyrimidin-4-amine, enantiomer 2]	362 nM	430 nM
CCC(c1cn(-c2cc(F)cc(F)c2)nn1)n1cc(-c2cnc(C(F)(F)F)nc2)c2c(N)ncnc21 (single isomer, unassigned; enantiomer 2) [Example 312, 7-{1-[1-(3,5-Difluorophenyl)-1H-1,2,3-triazol-4-yl]propyl}-5-[2-(trifluoromethyl)pyrimidin-5-yl]-7H-pyrrolo[2,3-d]pyrimidin-4-amine, enantiomer 2]	1020 nM	279 nM
CCC(c1cn(-c2ccc(F)c(F)c2)nn1)n1cc(-c2cnc(C(F)F)nc2)c2c(N)ncnc21 (single isomer, unassigned; enantiomer 2) [Example 313, 5-[2-(Difluoromethyl)pyrimidin-5-yl]-7-{1-[1-(3,4-difluorophenyl)-1H-1,2,3-triazol-4-yl]propyl}-7H-pyrrolo[2,3-d]pyrimidin-4-amine, enantiomer 2]	74.9 nM	131 nM
CCC(c1cn(-c2ccccc2F)nn1)n1cc(C2CC2)c2c(N)ncnc21 (single isomer, unassigned; enantiomer 2) [Example 316, (+) 5-Cyclopropyl-7-{1-[1-(2-fluorophenyl)-1H-1,2,3-triazol-4-yl]propyl}-7H-pyrrolo[2,3-d]pyrimidin-4-amine, enantiomer 2]	754 nM	541 nM
CC(c1cn(-c2ccc(F)cc2F)nn1)n1c(C#N)c(-c2ccc(OC3CC3)nc2)c2c(N)ncnc21 (single isomer, unassigned; enantiomer 2) [Example 321, 4-Amino-5-[6-(cyclopropyloxy)pyridin-3-yl]-7-{1-[1-(2,4-difluorophenyl)-1H-1,2,3-triazol-4-yl]ethyl}-7H-pyrrolo[2,3-d]pyrimidine-6-carbonitrile, enantiomer 2]	359 nM	141 nM
CC(C)n1cc(Cn2c(C#N)c(-c3ccc(Cl)cc3)c3c(N)ncnc32)cn1 [Example 25, 4-Amino-5-(4-chlorophenyl)-7-{[1-(propan-2-yl)-1H-pyrazol-4-yl]methyl}-7H-pyrrolo[2,3-d]pyrimidine-6-carbonitrile]	95.9 nM	41 nM
N#Cc1c(-c2ccc(Cl)cc2)c2c(N)ncnc2n1Cc1cn(-c2ccccc2F)nn1 [Example 26, 4-Amino-5-(4-chlorophenyl)-7-{[1-(2-fluorophenyl)-1H-1,2,3-triazol-4-yl]methyl}-7H-pyrrolo[2,3-d]pyrimidine-6-carbonitrile]	130 nM	35.7 nM
N#Cc1c(-c2cnc(C(F)(F)F)nc2)c2c(N)ncnc2n1Cc1cnn(-c2ccc(F)cc2F)c1 [Example 29, 4-Amino-7-{[1-(2,4-difluorophenyl)-1H-pyrazol-4-yl]methyl}-5-[2-(trifluoromethyl)pyrimidin-5-yl]-7H-pyrrolo[2,3-d]pyrimidine-6-carbonitrile]	2.33 nM	2.24 nM
N#Cc1c(-c2cnc(C(F)F)nc2)c2c(N)ncnc2n1Cc1cnn(-c2ccccc2F)c1 [Example 30, 4-Amino-5-[2-(difluoromethyl)pyrimidin-5-yl]-7-{[1-(2-fluorophenyl)-1H-pyrazol-4-yl]methyl}-7H-pyrrolo[2,3-d]pyrimidine-6-carbonitrile]	0.59 nM	2.03 nM
N#Cc1c(-c2cnc(C(F)(F)F)nc2)c2c(N)ncnc2n1Cc1cn(-c2ccccc2F)nn1 [Example 37]	13.5 nM	16.3 nM
Nc1ncnc2c1c(-c1cnc(C(F)(F)F)nc1)c(Br)n2Cc1cnn(-c2ccccc2F)c1 [Example 40, 6-bromo-7-{[1-(2-fluorophenyl)-1H-pyrazol-4-yl]methyl}-5-[2-(trifluoromethyl)pyrimidin-5-yl]-7H-pyrrolo[2,3-d]pyrimidin-4-amine]	2.18 nM	1.3 nM
Nc1ncnc2c1c(-c1cnc(C(F)(F)F)nc1)cn2Cc1cnn(-c2ccccc2F)c1 [Example 57, 7-((1-(2-fluorophenyl)-1H-pyrazol-4-yl)methyl)-5-(2-(trifluoromethyl)pyrimidin-5-yl)-7H-pyrrolo[2,3-d]pyrimidin-4-amine]	28.8 nM	65.9 nM
CC(c1cn(-c2ccccc2F)nn1)n1cc(-c2ccc(Cl)cc2)c2c(N)ncnc21 (stereo not shown) [Example 58, 5-(4-Chlorophenyl)-7-{1-[1-(2-fluorophenyl)-1H-1,2,3-triazol-4-yl]ethyl}-7H-pyrrolo[2,3-d]pyrimidin-4-amine]	232 nM	28.9 nM
COc1ccc(-c2cn(C(C)c3cnc(-c4ccccc4F)[nH]3)c3ncnc(N)c23)c(F)c1 (stereo not shown) [Example 59, 5-(2-Fluoro-4-methoxyphenyl)-7-{1-[2-(2-fluorophenyl)-1H-imidazol-5-yl]ethyl}-7H-pyrrolo[2,3-d]pyrimidin-4-amine]	195 nM	32 nM
CC(c1cnc(-c2ccccc2F)[nH]1)n1cc(-c2cc[nH]n2)c2c(N)ncnc21 (stereo not shown) [Example 60, 7-{1-[2-(2-Fluorophenyl)-1H-imidazol-5-yl]ethyl}-5-(1H-pyrazol-3-yl)-7H-pyrrolo[2,3-d]pyrimidin-4-amine]	45.3 nM	80 nM
CC(c1cnc(-c2ccccc2F)[nH]1)n1cc(-c2ccc(C(F)(F)F)nc2)c2c(N)ncnc21 (stereo not shown) [Example 64, 7-{1-[2-(2-Fluorophenyl)-1H-imidazol-5-yl]ethyl}-5-[6-(trifluoromethyl)pyridin-3-yl]-7H-pyrrolo[2,3-d]pyrimidin-4-amine]	80 nM	80.3 nM
CC(c1cnc(-c2ccccc2F)[nH]1)n1cc(-c2ccc3[nH]ncc3c2)c2c(N)ncnc21 (stereo not shown) [Example 66, 7-{1-[2-(2-Fluorophenyl)-1H-imidazol-5-yl]ethyl}-5-(1H-indazol-5-yl)-7H-pyrrolo[2,3-d]pyrimidin-4-amine]	573 nM	1320 nM
CC(c1cnc(-c2ccccc2F)[nH]1)n1cc(-c2cnc(N(C)C)nc2)c2c(N)ncnc21 (stereo not shown) [Example 67, 5-[2-(Dimethylamino)pyrimidin-5-yl]-7-{1-[2-(2-fluorophenyl)-1H-imidazol-5-yl]ethyl}-7H-pyrrolo[2,3-d]pyrimidin-4-amine]	54.6 nM	142 nM
Cc1ccc(-c2cn(C(C)c3cnc(-c4ccccc4F)[nH]3)c3ncnc(N)c23)cc1F (stereo not shown) [Example 68, 5-(3-Fluoro-4-methylphenyl)-7-{1-[2-(2-fluorophenyl)-1H-imidazol-5-yl]ethyl}-7H-pyrrolo[2,3-d]pyrimidin-4-amine]	112 nM	26.1 nM
CC(c1cnc(-c2ccccc2F)[nH]1)n1cc(-c2ccc(-n3nccn3)cc2)c2c(N)ncnc21 (stereo not shown) [Example 70, 7-{1-[2-(2-Fluorophenyl)-1H-imidazol-5-yl]ethyl}-5-[4-(2H-1,2,3-triazol-2-yl)phenyl]-7H-pyrrolo[2,3-d]pyrimidin-4-amine]	110 nM	30.6 nM
COc1cc(C#N)cc(-c2cn(Cc3cn(-c4ccccc4F)nn3)c3ncnc(N)c23)c1 [Example 72, 3-(4-Amino-7-{[1-(2-fluorophenyl)-1H-1,2,3-triazol-4-yl]methyl}-7H-pyrrolo[2,3-d]pyrimidin-5-yl)-5-methoxybenzonitrile]	186 nM	57 nM
Nc1ncnc2c1c(-c1ccc3c(c1)CCO3)cn2Cc1cn(-c2ccccc2F)nn1 [Example 74, 5-(2,3-Dihydro-1-benzofuran-5-yl)-7-{[1-(2-fluorophenyl)-1H-1,2,3-triazol-4-yl]methyl}-7H-pyrrolo[2,3-d]pyrimidin-4-amine]	328 nM	59 nM
CCOc1ccc(-c2cn(Cc3cn(-c4ccccc4F)nn3)c3ncnc(N)c23)cc1F [Example 75, 5-(4-Ethoxy-3-fluorophenyl)-7-{[1-(2-fluorophenyl)-1H-1,2,3-triazol-4-yl]methyl}-7H-pyrrolo[2,3-d]pyrimidin-4-amine]	99.6 nM	38 nM
Nc1ncnc2c1c(-c1ccc(OC3CC3)cc1)cn2Cc1cn(-c2ccccc2F)nn1 [Example 77, 5-[4-(Cyclopropyloxy)phenyl]-7-{[1-(2-fluorophenyl)-1H-1,2,3-triazol-4-yl]methyl}-7H-pyrrolo[2,3-d]pyrimidin-4-amine]	62.5 nM	17.4 nM
